# Assay results from PMC3419607, “Effect of Alpinia zerumbet components on antioxidant and skin diseases-related enzymes” (BMC Complementary and Alternative Medicine, 2012).
# Columns and labels:
# [1] = DPPH radical scavenging activity assay; details: 30 min, 517 nm
# Method: The free radical scavenging activity was evaluated as described previously. Five hundred microlilters of the different concentration of test samples were mixed with 200 μl of 0.5 mM DPPH methanol solution and 500 μl of 0.1 M sodium acetate buffer (pH 5.5). After shaking, the mixture was incubated in the dark at room temperature for 30 min, and then the absorbance was measured at 517 nm. BHT was used as a positive control, while water and methanol were used as controls for calculation.
# (§1) The ability of the extracts to scavenge DPPH, ABTS^·+, PMS-NADH radicals were calculated by following formula:
# (§2) Radical scavenging (%) = [(O.Dcontrol – O.Dsample)/ O.Dcontrol] x 100,
# (§3) where O.D is the optical density in the presence or absence of the samples.
# [2] = Total antioxidant activity (ABTS) assay; details: ABTS radical scavenging, 6 min, 734 nm
# Method: The total antioxidant activity of test sample was measured with modified method as described previously. ABTS^·+ solution was generated by mixing 7 mM ABTS and 2.45 mM potassium persulfate (K2S2O8) in water, which was placed in the dark at room temperature for 16 h to give the complete oxidation of ABTS. Before using, the ABTS^·+ solution was diluted with water to get an absorbance of 0.700 ± 0.050 at 734 nm. Briefly, 1 ml of ABTS^·+ solution was added to 30 μl of test samples and mixed thoroughly. BHT was used as positive control and the sample solutions were used as controls. The reactive mixture was incubated at room temperature for 6 min and the absorbance was immediately recorded at 734 nm.
# as §1, §2, §3
# [3] = PMS-NADH system superoxide-radical scavenging assay; details: 560 nm
# Method: The superoxide scavenging activity was assayed following the method of Lau et al. with minor modifications. The reaction mixture contained 0.5 ml of 105 μM NADH, 0.5 ml of 66 μM NBT dissolved in 0.1 M phosphate buffer (pH 7.4) and 0.1 ml sample in different concentrations. The reaction was initiated by adding 0.5 ml of 30 μM PMS into the reaction mixture. Methanol and water were used as a control and BHT as a positive control. After 10 min, the reaction mixture reached to stable color, measurement of absorbance was conducted at 560 nm.
# as §1, §2, §3
# [4] = target: Collagenase from Clostridium histolyticum (ChC); assay: Collagenase inhibition assay (FALGPA substrate); format: biochemical; details: plant parts: aqueous extract
# Method: Collagenase inhibition assay was performed by the method described previously which based on the hydrolysis of N-[3-(2-furyl)acryloyl]-Leu-Gly-Pro-Ala (FALGPA) by collagenase to produce FA-Leu and Gly-Pro-Ala. The assay was performed in 50 mM Tricine buffer (400 mM NaCl and 10 mM CaCl2, pH 7.5). Collagenase from Clostridium histolyticum (ChC) was dissolved in the buffer for use at an initial concentration of 0.8 units/ ml. The synthetic substrate, FALGPA, was dissolved in the Tricine buffer to 2 mM. Sample extracts were incubated with the enzyme in the buffer for 15 min before adding substrate to start reaction. The final reaction mixture (150 μl total volume) contained Tricine buffer, 0.8 mM of FALGPA, 0.1 units of ChC and 25 μg of test extracts. Controls were performed with water and methanol, while oleanolic acid as a positive control. After adding substrate for 20 min, collagenase activity was measured at 340 nm.
# The percentage inhibition for collagenase, elastase and hyaluronidase assays were calculated by:
# Enzyme inhibition activity (%) = (1– B/A) x 100, where A is the enzyme activity without sample and B is the activity in presence of the sample.
# [5] = target: T1, elastase from porcine pancreas (Sus scrofa, UniProt P00772); assay: Elastase inhibition assay (SANA substrate); format: biochemical; details: plant parts: aqueous extract
# T1 construct: from tissue; host or cells: porcine pancreas
# Text: The inhibitory activity determined the intensity of color released during cleavage of SANA by the action of elastase.
# [6] = target: T2, hyaluronidase from bovine test (Bos taurus, UniProt Q2YDK3); assay: Hyaluronidase inhibition assay; format: biochemical; details: plant parts: aqueous extract
# T2 construct: from tissue; host or cells: bovine testes (printed 'bovine test')
# T2 sequence (Q2YDK3 36-553): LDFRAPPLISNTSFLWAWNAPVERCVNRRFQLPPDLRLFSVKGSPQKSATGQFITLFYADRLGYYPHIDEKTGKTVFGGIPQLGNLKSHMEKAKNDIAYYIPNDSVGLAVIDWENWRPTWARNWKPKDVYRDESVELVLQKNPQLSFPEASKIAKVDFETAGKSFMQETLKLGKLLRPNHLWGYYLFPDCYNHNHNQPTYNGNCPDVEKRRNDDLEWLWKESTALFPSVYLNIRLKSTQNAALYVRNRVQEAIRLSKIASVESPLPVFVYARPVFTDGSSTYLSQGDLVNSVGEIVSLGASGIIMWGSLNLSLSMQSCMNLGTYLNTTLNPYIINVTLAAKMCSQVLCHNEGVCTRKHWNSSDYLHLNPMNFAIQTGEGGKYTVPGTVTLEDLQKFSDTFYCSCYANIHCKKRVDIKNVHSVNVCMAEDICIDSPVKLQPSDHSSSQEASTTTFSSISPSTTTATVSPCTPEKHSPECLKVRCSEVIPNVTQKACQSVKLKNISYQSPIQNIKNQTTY
# T1 sequence (P00772 27-266): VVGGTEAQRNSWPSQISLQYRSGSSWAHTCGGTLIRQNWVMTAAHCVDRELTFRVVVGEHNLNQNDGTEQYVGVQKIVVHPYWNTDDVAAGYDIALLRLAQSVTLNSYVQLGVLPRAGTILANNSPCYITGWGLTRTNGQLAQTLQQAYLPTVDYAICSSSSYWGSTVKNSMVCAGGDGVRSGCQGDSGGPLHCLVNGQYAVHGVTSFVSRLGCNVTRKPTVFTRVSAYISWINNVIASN
Structure (SMILES),Inhibitory effect (IC50) DPPH [1],Inhibitory effect (IC50) ABTS [2],Inhibitory effect (IC50) PMS-NADH [3],IC50 collagenase inhibition [4],IC50 [5],IC50 [6]
"Cc1cc(C(C)(C)C)c(O)c(C(C)(C)C)c1 [BHT, tert-butyl hydroxytoluene, reference compound]",11.74 ± 0.15 a ^1 μg/mL,14.26 ± 0.16 a μg/mL,24.80 ± 0.98 a μg/mL,–,–,–
"COc1cc(/C=C/c2ccccc2)oc(=O)c1 [DK, 5,6-dehydrokawain]",122.14 ± 1.40 µg/mL,110.08 ± 3.34 µg/mL,127.78 ± 4.75 µg/mL,24.93 ± 0.97 µg/mL,85 µM,85.3 µM
"CC1(C)CC[C@]2(C(=O)O)CC[C@]3(C)C(=CC[C@@H]4[C@@]5(C)CC[C@H](O)C(C)(C)[C@@H]5CC[C@]43C)[C@@H]2C1 [oleanolic acid, reference compound]",–,–,–,17.95 ± 0.23 µg/mL,–,–
